Molecular target: T1, bromodomain of BRD9 (GST fusion) / acetylated histone H4 peptide (BET Bromodomain Ligand) (Homo sapiens, UniProt Q9H8M2)
T1 construct: A GST fusion protein of the bromodomain of BRD9; purchased BPS Biosciences #32519
T1 sequence (Q9H8M2 136-240 limits assumed): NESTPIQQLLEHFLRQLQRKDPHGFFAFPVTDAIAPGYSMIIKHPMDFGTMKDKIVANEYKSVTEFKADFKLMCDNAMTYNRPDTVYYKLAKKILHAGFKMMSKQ
Assay: BRD9-H4 Tetraacetylated Peptide Inhibition AlphaScreen
Format: binding
Description: BRD9-H4 Tetraacetylated Peptide Inhibition AlphaScreen
This assay is used to identify compounds which inhibit the interaction of the bromodomain of BRD9 with a tetra-acetylated peptide based on the sequence of histone H4 (termed the “BET Bromodomain ligand” as purchased from BPS Biosciences).
A GST fusion protein of the bromodomain of BRD9 and an acetylated histone H4 peptide (the “BET Bromodomain Ligand” are purchased as part of the BRD9 Inhibitor Screening Assay Kit at BPS Biosciences (Cat. Number: #32519)
AlphaScreen Beads (Perkin Elmer):
AlphaLISA Glutathione Acceptor Beads
AlphaScreen Streptavidin Donor Beads
Assay plates: Proxiplate-384 PLUS, white (PerkinElmer)
The assay is done in a darkened room below 100 Lux.
Compounds are dispensed onto assay plates using an Access Labcyte Workstation with the Labcyte Echo 550 from a DMSO solution. For the chosen highest concentration of 100 μM, 150 nl of compound solution are transferred from a 10 mM DMSO solution. A series of 11 concentrations is transferred for each compound at which each concentration is five-fold lower than the previous one (i.e. 100 μM, 20 μM, 4 μM, 0.8 μM, etc). DMSO is added such that every well has a total of 150 nl of DMSO.
15 μl of the resulting mix are added to the assay plates that contain 150 nl of the compounds. After 60 min at room temperature the signal is measured in a PerkinElmer Envision HTS Multilabel Reader using the AlphaScreen specifications from PerkinElmer.
Each plate contains negative controls where biotinylated BET Bromodomain Ligand and GST-BRD9 are left out and replaced by assay buffer. Negative control values are entered as low basis value when using the software GraphPad Prism for calculations.

Structure (SMILES)	IC50
COc1cc(-c2cc(C)c(=O)n(C)c2)ccc1C(=O)N1CCNCC1 [Compound I-158]	19 nM
CNc1cccc2c(=O)n(C)cc(-c3ccc(C)c(NS(C)(=O)=O)c3)c12 [II-39, N-[2-Methyl-5-(2-methyl-5-methylamino-1-oxo-1,2-dihydro-isoquinolin-4-yl)-phenyl]-methanesulfonamide]	7830 nM
Cc1cc(-c2ccc(CN3C[C@@H]4C[C@H]3CN4)cc2)cn(C)c1=O [Compound I-189, 5-{4-[(S)-1-(2,5-Diaza-bicyclo[2.2.1]hept-2-yl)methyl]-phenyl}-1,3-dimethyl-1H-pyridin-2-one]	23 nM
CNc1ccc2c(-c3ccc(C)c(NS(C)(=O)=O)c3)cn(C)c(=O)c2c1 [II-40]	5440 nM
Cc1cc(-c2ccc(C3(N)CC3)cc2)cn(C)c1=O [Compound I-69]	15 nM
Cc1cc(-c2ccc(C(=O)N3CCN(C)CC3)cc2)cn(C)c1=O [Compound I-9]	172 nM
CN1CCN(C(=O)c2ccc(-c3cc(O)c(=O)n(C)c3)cc2)CC1 [Compound I-45, 3-Hydroxy-1-methyl-5-[4-(4-methyl-piperazine-1-carbonyl)-phenyl]-1H-pyridin-2-one]	2090 nM
COc1cc(-c2cc(C)c(=O)n(C)c2)ccc1CN1CCN(C)CC1 [Compound I-191, 5-[3-methoxy-4-(4-methyl-piperazin-1-ylmethyl)-phenyl]-1,3-dimethyl-1H-pyridin-2-one]	3 nM
Cc1ccc(-c2cn(C)c(=O)c3cccc(C)c23)cc1NS(C)(=O)=O [II-28, N-[5-(2,5-Dimethyl-1-oxo-1,2-dihydro-isoquinolin-4-yl)-2-methyl-phenyl]-methanesulfonamide]	923 nM
Cc1cc(-c2ccc(CN3CCOCC3)cc2)cn(C)c1=O [Compound I-14]	109 nM
Cc1cc(-c2ccc(CN)cc2)cn(C)c1=O [Compound I-78]	130 nM
COc1cc(-c2cc(C)c(=O)n(C)c2)ccc1CN1CCNCC1 [Compound I-190, 5-(3-methoxy-4-piperazin-1-ylmethyl-phenyl)-1,3-dimethyl-1H-pyridin-2-one]	21 nM
CCn1cc(-c2ccc(C)c(NS(C)(=O)=O)c2)cc(C)c1=O [Compound I-24]	3310 nM
CCn1cc(-c2ccc(C)c(NS(C)(=O)=O)c2)c2cc[nH]c2c1=O [III-1, N-[5-(6-Ethyl-7-oxo-6,7-dihydro-1H-pyrrolo[2,3-c]pyridin-4-yl)-2-methyl-phenyl]-methanesulfonamide]	645 nM
Cc1ccc(-c2cn(C)c(=O)c3cccc(F)c23)cc1NS(C)(=O)=O [II-27]	1160 nM
Cc1ccc(-c2cc(C)c(=O)n(C)c2)cc1NCc1cccnc1 [Compound I-42, 1,3-Dimethyl-5-{4-methyl-3-[(pyridin-3-ylmethyl)-amino]-phenyl}-1H-pyridin-2-one]	470 nM
Cc1ccc(-c2cn(C)c(=O)c3cccc(O)c23)cc1NS(C)(=O)=O [II-36, N-[5-(5-Hydroxy-2-methyl-1-oxo-1,2-dihydro-isoquinolin-4-yl)-2-methyl-phenyl]-methanesulfonamide]	5250 nM
Cc1cc(-c2ccc(C(=O)N3CCCC3)cc2)cn(C)c1=O [Compound I-40]	496 nM
Cc1cc(-c2ccc(C(=O)N3CCN(C)CC3)c(F)c2)cn(C)c1=O [Compound I-15]	279 nM
Cc1ccc(-c2cc(N)c(=O)n(C)c2)cc1NS(C)(=O)=O [Compound I-29]	4220 nM
CN1CCN(C(=O)c2ccc(-c3cn(C)c(=O)c4ccccc34)cc2)CC1 [II-4]	86 nM
Cc1cc(-c2cc(C)c(=O)n(C)c2)cc(C)c1C(=O)N1CCNCC1 [Compound I-160]	33 nM
CCS(=O)(=O)Cc1cc(-c2cc(C)c(=O)n(C)c2)ccc1C(=O)N1CCNCC1 [Compound I-169, 5-[3-Ethanesulfonylmethyl-4-(piperazine-1-carbonyl)-phenyl]-1,3-dimethyl-1H-pyridin-2-one]	29 nM
CN1CCN(C(=O)c2ccc(-c3cc(Br)c(=O)n(C)c3)cc2)CC1 [Compound I-44]	508 nM
Cc1cc(-c2ccc(C(=O)N3CC4CCC3C4)cc2)cn(C)c1=O (stereo not drawn) [Compound I-38]	256 nM
Cc1ccc(-c2cn(C)c(=O)c3cccc(N)c23)cc1NS(C)(=O)=O [II-38, N-[5-(5-amino-2-methyl-1-oxo-1,2-dihydro-isoquinolin-4-yl)-2-methyl-phenyl]-methanesulfonamide]	8420 nM
Cc1c(-c2ccc(C(=O)N3CCN(C)CC3)cc2)cn(C)c(=O)c1C [Compound I-18]	113 nM
Cc1cc(-c2ccc([C@@H](C)N)cc2)cn(C)c1=O [Compound I-94]	334 nM
Cc1cc(-c2ccc(C(=O)N3CCNCC3)cc2)cn(C)c1=O [Compound I-37, 1,3-Dimethyl-5-[4-(piperazine-1-carbonyl)-phenyl]-1H-pyridin-2-one]	34 nM
Cc1cc(-c2ccc([C@H](C)N)cc2)cn(C)c1=O [Compound I-93]	112 nM

More lines, in order of falling IC50, values ahead:

IC50	Structure (SMILES)
6580 nM	Cc1ccc(-c2cn(C)c(=O)c(C)n2)cc1NS(C)(=O)=O [Compound I-25]
2030 nM	CNc1cc(-c2ccc(C)c(NS(C)(=O)=O)c2)cn(C)c1=O [Compound I-32, N-[2-Methyl-5-(1-methyl-5-methylamino-6-oxo-1,6-dihydro-pyridin-3-yl)-phenyl]-methanesulfonamide]
984 nM	CN1CCN(C(=O)c2ccc(-c3cn(C4CC4)c(=O)c4ccccc34)cc2)CC1 [II-18]
983 nM	CCn1cc(-c2ccc(C(=O)N(C)C)cc2)c2ccccc2c1=O [II-16]
609 nM	Cc1ccc(-c2cc(C)c(=O)n(C)c2)cc1NS(C)(=O)=O [Compound I-23, N-[5-(1,5-Dimethyl-6-oxo-1,6-dihydro-pyridin-3-yl)-2-methyl-phenyl]-methanesulfonamide]
568 nM	Cc1cc(-c2cccc(OC(F)(F)F)c2)cn(C)c1=O [Compound I-16]
398 nM	CCn1cc(-c2ccc(C(=O)N3CCN(C)CC3)cc2)c2ccccc2c1=O [II-15]
333 nM	Cc1ccc(-c2cn(C)c(=O)c(C)c2C)cc1N [Compound I-19]
294 nM	Cc1cc(-c2ccc(C(=O)N3CC(O)C3)cc2)cn(C)c1=O [Compound I-39]
204 nM	Cc1cc(-c2ccc(C(=O)N3CCN(C)CC3)c(Cl)c2)cn(C)c1=O [Compound I-176]
135 nM	Cc1cc(-c2ccc(C(=O)N3CCN(C)CC3)c3ccccc23)cn(C)c1=O [Compound I-175]
106 nM	Cc1cc(-c2cc(C)c(=O)n(C)c2)ccc1C(=O)N1CCN(C)CC1 [Compound I-174]
103 nM	Cc1cc(-c2ccc(C(=O)N3CCN(C)CC3)c(CS(C)(=O)=O)c2)cn(C)c1=O [Compound I-171]
70 nM	COc1cc(-c2cc(C)c(=O)n(C)c2)ccc1C(=O)N1CCN(C)CC1 [Compound I-89, 5-[3-methoxy-4-(4-methyl-piperazine-1-carbonyl)-phenyl]-1,3-dimethyl-1H-pyridin-2-one]
47 nM	Cc1cc(-c2cc(C)c(=O)n(C)c2)ccc1CN(C)C [Compound I-35]
42 nM	CNCc1ccc(-c2cc(C)c(=O)n(C)c2)cc1C [Compound I-36]
33 nM	CNCc1ccc(-c2cc(C)c(=O)n(C)c2)cc1OC [Compound I-192]
32 nM	COc1cc(C(=O)N2CCNCC2)ccc1-c1cc(C)c(=O)n(C)c1 [Compound I-161]
